Data reported in US11459323B2, “Monocyclic β-lactam compound for treating bacterial infection” (MEDSHINE DISCOVERY INC., priority 2018, dated 2022).
≈ marks a conversion by molar mass, not a printed value. Like-named read-outs stand apart in the source and are kept apart here.

Columns and labels:
Assay in all cases: MIC on clinically isolated bacteria
Type in all cases: cell-based
[1] = test system: Acinetobacter baumannii C270; settings: Acinetobacter baumannii C270; read-out: Minimum Inhibitory Concentration (MIC)
Text: (§1) Twenty-five strains of clinically isolated Acinetobacter baumannii and twenty-seven strains of Pseudomonas aeruginosa were respectively selected and used to determine the minimum inhibitory concentration (MIC) of the compounds by micro-liquid dilution method according to the Institute of Clinical and Laboratory Standard (CLSI) requirements.

[2] = test system: Acinetobacter baumannii C333; settings: Acinetobacter baumannii C333; read-out: Minimum Inhibitory Concentration (MIC)
Text: as §1

[3] = test system: Acinetobacter baumannii C395; settings: Acinetobacter baumannii C395; read-out: Minimum Inhibitory Concentration (MIC)
Text: as §1

[4] = test system: Pseudomonas aeruginosa M4; settings: read-out: MIC
Text: as §1

[5] = test system: Pseudomonas aeruginosa W27; settings: read-out: MIC
Text: as §1

[6] = test system: Acinetobacter baumannii C181; settings: Acinetobacter baumannii C181; read-out: Minimum Inhibitory Concentration (MIC)
Text: as §1

[7] = test system: Acinetobacter baumannii C361; settings: Acinetobacter baumannii C361; read-out: Minimum Inhibitory Concentration (MIC)
Text: as §1

[8] = test system: Pseudomonas aeruginosa W28; settings: read-out: MIC
Text: as §1

[9] = test system: Pseudomonas aeruginosa C761; settings: read-out: MIC
Text: as §1

[10] = test system: Pseudomonas aeruginosa M1; settings: read-out: MIC
Text: as §1

[11] = test system: Pseudomonas aeruginosa W32; settings: read-out: MIC
Text: as §1

[12] = test system: Pseudomonas aeruginosa W13; settings: read-out: MIC
Text: as §1

[13] = test system: Pseudomonas aeruginosa W19; settings: read-out: MIC
Text: as §1

[14] = test system: Acinetobacter baumannii C319; settings: Acinetobacter baumannii C319; read-out: Minimum Inhibitory Concentration (MIC)
Text: as §1

[15] = test system: Acinetobacter baumannii C281; settings: Acinetobacter baumannii C281; read-out: Minimum Inhibitory Concentration (MIC)
Text: as §1

[16] = test system: Pseudomonas aeruginosa C763; settings: read-out: MIC
Text: as §1

[17] = test system: Pseudomonas aeruginosa W47; settings: read-out: MIC
Text: as §1

[18] = test system: Acinetobacter baumannii C332; settings: Acinetobacter baumannii C332; read-out: Minimum Inhibitory Concentration (MIC)
Text: as §1

[19] = test system: Acinetobacter baumannii C394; settings: Acinetobacter baumannii C394; read-out: Minimum Inhibitory Concentration (MIC)
Text: as §1

Aeruginosa ATCC27853 = settings: Pseudomonas aeruginosa; Aeruginosa ATCC27853; read-out: MIC
Text: as §1

[20] = test system: Pseudomonas aeruginosa W46; settings: read-out: MIC
Text: as §1

[21] = test system: Acinetobacter baumannii C330; settings: Acinetobacter baumannii C330; read-out: Minimum Inhibitory Concentration (MIC)
Text: as §1

[22] = test system: Pseudomonas aeruginosa C754; settings: read-out: MIC
Text: as §1

[23] = test system: Pseudomonas aeruginosa W24; settings: read-out: MIC
Text: as §1

[24] = test system: Acinetobacter baumannii C328; settings: Acinetobacter baumannii C328; read-out: Minimum Inhibitory Concentration (MIC)
Text: as §1

[25] = test system: Acinetobacter baumannii C312; settings: Acinetobacter baumannii C312; read-out: Minimum Inhibitory Concentration (MIC)
Text: as §1

[26] = test system: Pseudomonas aeruginosa W42; settings: read-out: MIC
Text: as §1

[27] = test system: Acinetobacter baumannii C402; settings: Acinetobacter baumannii C402; read-out: Minimum Inhibitory Concentration (MIC)
Text: as §1

[28] = test system: Pseudomonas aeruginosa W1; settings: read-out: MIC
Text: as §1

[29] = test system: Acinetobacter baumannii C390; settings: Acinetobacter baumannii C390; read-out: Minimum Inhibitory Concentration (MIC)
Text: as §1

[30] = test system: Pseudomonas aeruginosa W35; settings: read-out: MIC
Text: as §1

[31] = test system: Acinetobacter baumannii C315; settings: Acinetobacter baumannii C315; read-out: Minimum Inhibitory Concentration (MIC)
Text: as §1

[32] = test system: Acinetobacter baumannii C313; settings: Acinetobacter baumannii C313; read-out: Minimum Inhibitory Concentration (MIC)
Text: as §1

[33] = test system: Pseudomonas aeruginosa C745; settings: read-out: MIC
Text: as §1

[34] = test system: Pseudomonas aeruginosa W9; settings: read-out: MIC
Text: as §1

[35] = test system: Pseudomonas aeruginosa C762
Text: as §1

[36] = test system: Pseudomonas aeruginosa W20; settings: read-out: MIC
Text: as §1

[37] = test system: Pseudomonas aeruginosa W4; settings: read-out: MIC
Text: as §1

[38] = test system: Acinetobacter baumannii C357; settings: Acinetobacter baumannii C357; read-out: Minimum Inhibitory Concentration (MIC)
Text: as §1

[39] = test system: Pseudomonas aeruginosa W23; settings: read-out: MIC
Text: as §1

[40] = test system: Pseudomonas aeruginosa W6; settings: read-out: MIC
Text: as §1

With `C[C@H]1[C@H](NC(=O)/C(=N\OC(C)(C)C(=O)O)c2csc(N)n2)C(=O)N1S(=O)(=O)O` [Aztreonam, reference compound] the MIC [1] was 64 µg/mL (≈ 147 µM), the MIC [2] was 64 µg/mL (≈ 147 µM) and the MIC [3] was 32 µg/mL (≈ 73.5 µM). The MIC [4] was less than 0.25 µg/mL, the MIC [5] was 32 µg/mL (≈ 73.5 µM) and the MIC [6] was 64 µg/mL (≈ 147 µM). It also gave an MIC [7] of 32 µg/mL (≈ 73.5 µM), an MIC [8] of 32 µg/mL (≈ 73.5 µM) and an MIC [9] of 8 µg/mL (≈ 18.4 µM). It also gave an MIC [10] of 8 µg/mL (≈ 18.4 µM), an MIC [11] of 32 µg/mL (≈ 73.5 µM) and an MIC [12] of 16 µg/mL (≈ 36.7 µM). It also gave an MIC [13] of 16 µg/mL (≈ 36.7 µM), an MIC [14] of 64 µg/mL (≈ 147 µM) and an MIC [15] of 64 µg/mL (≈ 147 µM). For the same compound, the MIC [16] was 32 µg/mL (≈ 73.5 µM), the MIC [17] was 16 µg/mL (≈ 36.7 µM) and the MIC [18] was 64 µg/mL (≈ 147 µM). For the same compound, the MIC [19] was 64 µg/mL (≈ 147 µM), the MIC (Aeruginosa ATCC27853) was 2 µg/mL (≈ 4.59 µM) and the MIC [20] was 16 µg/mL (≈ 36.7 µM). For the same compound, the MIC [21] was 64 µg/mL (≈ 147 µM), the MIC [22] was 4 µg/mL (≈ 9.19 µM) and the MIC [23] was 32 µg/mL (≈ 73.5 µM). The MIC [24] was 64 µg/mL (≈ 147 µM), the MIC [25] was 64 µg/mL (≈ 147 µM) and the MIC [26] was 16 µg/mL (≈ 36.7 µM). For the same compound, the MIC [27] was 32 µg/mL (≈ 73.5 µM), the MIC [28] was 32 µg/mL (≈ 73.5 µM) and the MIC [29] was 64 µg/mL (≈ 147 µM). The MIC [30] was 2 µg/mL (≈ 4.59 µM), the MIC [31] was 64 µg/mL (≈ 147 µM) and the MIC [32] was 64 µg/mL (≈ 147 µM). It also gave an MIC [33] of 32 µg/mL (≈ 73.5 µM), an MIC [34] of 32 µg/mL (≈ 73.5 µM) and an MIC [35] of 128 µg/mL (≈ 294 µM). The MIC [36] was 32 µg/mL (≈ 73.5 µM), the MIC [37] was 4 µg/mL (≈ 9.19 µM) and the MIC [38] was 32 µg/mL (≈ 73.5 µM). The MIC [39] was 16 µg/mL (≈ 36.7 µM) and the MIC [40] was 32 µg/mL (≈ 73.5 µM).
In the case of `CC1(C)[C@H](NC(=O)/C(=N\O[C@@H](COc2ccc3c(c2)CN(C(=N)NCCCCN)C3)C(=O)O)c2csc(N)n2)C(=O)N1OS(=O)(=O)O` [Compound 36], the MIC [1] is reported as 2 µg/mL (≈ 2.87 µM), the MIC [2] is reported as 2 µg/mL (≈ 2.87 µM) and the MIC [3] is reported as 2 µg/mL (≈ 2.87 µM). For the same compound, the MIC [4] was 1 µg/mL (≈ 1.43 µM), the MIC [5] was 0.5 µg/mL (≈ 0.717 µM) and the MIC [6] was 2 µg/mL (≈ 2.87 µM). The MIC [7] was 2 µg/mL (≈ 2.87 µM), the MIC [8] was 4 µg/mL (≈ 5.73 µM) and the MIC [9] was 0.25 µg/mL (≈ 0.358 µM). For the same compound, the MIC [10] was 0.5 µg/mL (≈ 0.717 µM), the MIC [11] was 1 µg/mL (≈ 1.43 µM) and the MIC [12] was 0.25 µg/mL (≈ 0.358 µM). The MIC [13] was 0.25 µg/mL (≈ 0.358 µM), the MIC [14] was 2 µg/mL (≈ 2.87 µM) and the MIC [15] was 2 µg/mL (≈ 2.87 µM). For the same compound, the MIC [16] was 4 µg/mL (≈ 5.73 µM), the MIC [17] was 0.5 µg/mL (≈ 0.717 µM) and the MIC [18] was 2 µg/mL (≈ 2.87 µM). For the same compound, the MIC [19] was 2 µg/mL (≈ 2.87 µM), the MIC (Aeruginosa ATCC27853) was 0.25 µg/mL (≈ 0.358 µM) and the MIC [20] was 0.25 µg/mL (≈ 0.358 µM). For the same compound, the MIC [21] was 2 µg/mL (≈ 2.87 µM), the MIC [22] was 0.25 µg/mL (≈ 0.358 µM) and the MIC [23] was 0.5 µg/mL (≈ 0.717 µM). It also gave an MIC [24] of 2 µg/mL (≈ 2.87 µM), an MIC [25] of 2 µg/mL (≈ 2.87 µM) and an MIC [26] of 0.25 µg/mL (≈ 0.358 µM). It also gave an MIC [27] of 2 µg/mL (≈ 2.87 µM), an MIC [28] of 0.5 µg/mL (≈ 0.717 µM) and an MIC [29] of 2 µg/mL (≈ 2.87 µM). It also gave an MIC [30] of 0.125 µg/mL (≈ 0.179 µM), an MIC [31] of 2 µg/mL (≈ 2.87 µM) and an MIC [32] of 2 µg/mL (≈ 2.87 µM). The MIC [33] was 8 µg/mL (≈ 11.5 µM), the MIC [34] was 0.5 µg/mL (≈ 0.717 µM) and the MIC ([35]; read-out: MIC) was 8 µg/mL (≈ 11.5 µM). It also gave an MIC [36] of 0.5 µg/mL (≈ 0.717 µM), an MIC [37] of 1 µg/mL (≈ 1.43 µM) and an MIC [38] of 2 µg/mL (≈ 2.87 µM). It also gave an MIC [39] of 0.25 µg/mL (≈ 0.358 µM) and an MIC [40] of 0.5 µg/mL (≈ 0.717 µM).
